Results on eight compounds are retold here after US20250092064A1, “BENZOTRIAZOLE COMPOUND” (DAIICHI SANKYO COMPANY, LIMITED, priority 2022, published 2025).

Molecules are shown by their SMILES.

Experiment [1] has as its target binding between Nrf2 and Keap1 (Homo sapiens (Human), UniProt Q14145). Nature of the experiment: FP assay (in vitro): inhibition of Nrf2-Keap1 binding by fluorescence polarization. The conditions noted are these: GST-fused human Keap1 (325-642) 20 nM, FITC-labeled Nrf2 peptide 10 nM, 2 hr at room temperature.
Experiment [2] concerns NQO1 activity in Hepa1c1c7 cells. Nature of the experiment: NAD(P)H: quinone oxidoreductase-1 (NQO1) enzyme induction assay (in vitro). The experiment is classed as cell-based, mouse. The conditions noted are these: Mus musculus, Hepa-1c1c7, NQO1 activity with 400 nM test compound as a ratio from the base without compound, about 48 hr. The protocol:
The NQO1 assay was performed based on a previous report (Methods in Enzymology 2004; 382: 243-258). Hepa1c1c7 cells (mouse hepatocyte cell line, ATCC, cat. no. CRL-2026) were cultured in D-MEM medium containing 10% FBS and 1% penicillin/streptomycin (5% CO2, 37° C.), and seeded into 96-well plates (Corning REF. 353072) at 1×10^4 cells/well. A portion of the wells were prepared with medium only for background measurement without seeding cells. The next day, 400 nM of the test compound (0.004% of the final concentration in DMSO) dissolved in DMSO was added thereto, and the wells were incubated for about 48 hr. A well without adding the test compound was prepared for base activity assay in part. […] After the medium was removed, 50 μL of the cell lysate was added and incubated at 37° C. for 10 minutes, followed by shaking at room temperature for 10 minutes. 200 μL of reaction solution was added thereto, and allowed to stand for 5 minutes at room temperature. 50 μL of the stop solution was added thereto, and absorbance was measured at 610 nm on a SpectraMax PLUS384 (Molecular devices) or […] Pharma Biomedical). The test results were analyzed in Excel, and the NQO1 activity upon addition of 400 nM of test compound was calculated as a ratio from the base without the compound. NQO1 activity ratio when test compound is added=(absorbance when test compound is added-absorbance of medium only)/(absorbance without addition of compound-absorbance of medium only) [numerical formula 2] The results of each test compound in this test are shown in the following Table 2 (A:5<NQO1 activity ratio, B:3<NQO1 activity ratio≤5).

Chain of binding between Nrf2 and Keap1 (Q14145 325-624 limits assumed): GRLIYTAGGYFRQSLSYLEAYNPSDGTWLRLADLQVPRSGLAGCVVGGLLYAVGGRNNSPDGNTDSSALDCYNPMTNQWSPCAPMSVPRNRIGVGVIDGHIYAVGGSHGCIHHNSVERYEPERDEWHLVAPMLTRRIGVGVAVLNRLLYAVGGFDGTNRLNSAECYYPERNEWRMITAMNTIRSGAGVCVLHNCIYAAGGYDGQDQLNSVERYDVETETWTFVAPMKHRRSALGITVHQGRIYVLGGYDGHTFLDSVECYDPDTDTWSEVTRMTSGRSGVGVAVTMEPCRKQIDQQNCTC

With `CCOc1ccc2c(n1)O[C@H](CC)CN(Cc1cc(C(CC(=O)O)c3ccc4c(nnn4C)c3C)cc3ccsc13)S2(=O)=O` (stereo partly drawn) [Example 19, 3-(1,4-Dimethyl-1H-benzotriazol-5-yl)-3-(7-{[(4R)-7-ethoxy-4-ethyl-1,1-dioxido-3,4-dihydro-2H-pyrido[2,3-b][1,4,5]oxathiazepin-2-yl]methyl}-1-benzothiophen-5-yl)propanoic acid], in experiment [1], the 50% inhibitory concentration (IC50) lay in the range of 10 to 30 nM. The fold induction at 0.4 µM in experiment [2] is over 5.

Turning to `CC[C@@H]1CN(Cc2cc([C@@H](CC(=O)O)c3ccc4c(nnn4C)c3C)cc3c2CCC3)S(=O)(=O)c2cc(Cl)c(F)cc2O1` [Example 20, (3R)-3-(7-{[(4R)-8-Chloro-4-ethyl-7-fluoro-1,1-dioxido-3,4-dihydro-2H-5,1,2-benzoxathiazepin-2-yl]methyl}-2,3-dihydro-1H-inden-5-yl)-3-(1,4-dimethyl-1H-benzotriazol-5-yl)propanoic acid], in experiment [1], the IC50 is 10 to 30 nM. In addition, the fold induction at 0.4 µM in experiment [2] was over 5.

For `CC[C@@H]1CN(Cc2cc([C@H](CC(=O)O)c3ccc4c(nnn4C)c3C)cc3c2CCC3)S(=O)(=O)c2cc(Cl)c(F)cc2O1` [Example 21, (3S)-3-(7-{[(4R)-8-Chloro-4-ethyl-7-fluoro-1,1-dioxido-3,4-dihydro-2H-5,1,2-benzoxathiazepin-2-yl]methyl}-2,3-dihydro-1H-inden-5-yl)-3-(1,4-dimethyl-1H-benzotriazol-5-yl)propanoic acid], the half-maximal inhibitory concentration (IC50) in experiment [1] was at most 10 nM. The fold induction at 0.4 µM in experiment [2] was over 5.

For `CC[C@@H]1CN(Cc2cc([C@@H](CC(=O)O)c3ccc4c(nnn4C)c3C)cc3ccsc23)S(=O)(=O)c2cc(Cl)c(F)cc2O1` [Example 22, (3R)-3-(7-{[(4R)-8-Chloro-4-ethyl-7-fluoro-1,1-dioxido-3,4-dihydro-2H-5,1,2-benzoxathiazepin-2-yl]methyl}-1-benzothiophen-5-yl)-3-(1,4-dimethyl-1H-benzotriazol-5-yl)propanoic acid], in experiment [1], the IC50 is at most 10 nM. Further, in experiment [2], the fold induction at 0.4 µM is over 5.

For the compound `CC[C@@H]1CN(Cc2cc([C@H](CC(=O)O)c3ccc4c(nnn4C)c3C)cc3ccsc23)S(=O)(=O)c2cc(Cl)c(F)cc2O1` [Example 23, (3S)-3-(7-{[(4R)-8-Chloro-4-ethyl-7-fluoro-1,1-dioxido-3,4-dihydro-2H-5,1,2-benzoxathiazepin-2-yl]methyl}-1-benzothiophen-5-yl)-3-(1,4-dimethyl-1H-benzotriazol-5-yl)propanoic acid], the IC50 in experiment [1] is at most 10 nM. In experiment [2], the fold induction at 0.4 µM is over 5.

As for `CC[C@@H]1CN(Cc2cc(C(CC(=O)O)c3ccc4c(nnn4C)c3C)cc3c2CCC3)S(=O)(=O)c2cccnc2O1` (stereo partly drawn) [Example 24, 3-(1,4-Dimethyl-1H-benzotriazol-5-yl)-3-(7-{[(4R)-4-ethyl-1,1-dioxido-3,4-dihydro-2H-pyrido[2,3-b][1,4,5]oxathiazepin-2-yl]methyl}-2,3-dihydro-1H-inden-5-yl)propanoic acid], the IC50 in experiment [1] lay in the range of 10 to 30 nM. Besides, in experiment [2], the fold induction at 0.4 µM was over 5.

On to `CC[C@@H]1CN(Cc2cc(C(CC(=O)O)c3ccc4c(nnn4C)c3C)cc3c2CCC3)S(=O)(=O)c2cc(C(F)(F)F)cnc2O1` (stereo partly drawn) [Example 25, 3-(1,4-Dimethyl-1H-benzotriazol-5-yl)-3-(7-{[(4R)-4-ethyl-1,1-dioxido-8-(trifluoromethyl)-3,4-dihydro-2H-pyrido[2,3-b][1,4,5]oxathiazepin-2-yl]methyl}-2,3-dihydro-1H-inden-5-yl)propanoic acid], for which the half-inhibitory concentration (IC50) in experiment [1] was 10 to 30 nM. The fold induction at 0.4 µM in experiment [2] was over 5.

In experiment [1], `CC[C@@H]1CN(Cc2cc(C(CC(=O)O)c3ccc4c(nnn4C)c3C)cc3c2CCC3)S(=O)(=O)c2ccc3ccccc3c2O1` (stereo partly drawn) [Example 26, 3-(1,4-Dimethyl-1H-benzotriazol-5-yl)-3-(7-{[(2R)-2-ethyl-5,5-dioxido-2,3-dihydro-4H-naphtho[1,2-b][1,4,5]oxathiazepin-4-yl]methyl}-2,3-dihydro-1H-inden-5-yl)propanoic acid] showed a concentration for half-maximal inhibition (IC50) of 30 to 100 nM. Besides, in experiment [2], the fold induction at 0.4 µM was over 5.
